{
  "source": "patent US20030092684A1",
  "about": "“Compositions and methods for treating hemorrhagic virus infections and other disorders” (priority 1999, published 2003)",
  "key": {"[1]": {"system": "Marburg virus strain Popp", "design": "species or system guinea-pigs", "conditions": "guinea pig, in vivo; monohydrate"}, "[2]": {"system": "Lassa virus strain Josiah", "design": "species or system BALB/c mice", "conditions": "mouse, in vivo"}, "[3]": {"system": "IL-1, IL-1Ra, TNF and soluble TNF receptor (sTNFR)", "design": "species or system BALB/c mice", "conditions": "mouse, in vivo"}, "[4]": {"system": "IL-1, TNF, IL-1 RA and sTNFr", "assay": "Serum IL-1, TNF, IL-1RA and sTNFr after Doxycycline injection in uninfected mice (Group 1)", "format": "in vivo, BALB/c mice", "conditions": "58 mg/kg i.m. every day for 4 days"}, "[5]": {"system": "Dengue virus, type 2", "design": "species or system BALB/c mice", "conditions": "mouse, in vivo"}, "[6]": {"system": "IL-1, TNF, IL-1RA and sTNFr", "assay": "Serum IL-1, TNF, IL-1RA and sTNFr during treatment of Dengue virus infection (Example 2)", "format": "in vivo, BALB/c mice"}, "[7]": {"conditions": "day 0, 58 mg/kg i.m. daily day 2-5 after infection (Group 3)"}, "[8]": {"conditions": "day 0, 58 mg/kg i.m. daily day 3-5 after infection (Group 4)"}, "[9]": {"conditions": "day 1, 58 mg/kg i.m. daily day 2-5 after infection (Group 3)"}},
  "note": "Several values for one entry are separate records, joined by “and”; a condition that tells them apart may be missing. Equal values may be shown once. Read-outs that look alike come from different tables or passages of the source.",
  "data": [
    {"compound": "CC1c2cccc(O)c2C(=O)C2=C(O)C3(O)C(=O)C(C(N)=O)=C(O)C(N(C)C)C3C(O)C21.O", "note": "(stereo not shown) [Doxycycline, 4-(Dimethylamino)-1,4,4a,5,5a,6,11,12a-octahydro-3,5,10,12,12a-pentahydroxy-6-methyl-1, 11-dioxo-2-naphthacenecarboxamide monohydrate]", "values": [
      {"measurement": "m.t.d. (mean time to death)", "setting": "[1]", "result": "7.6 and 8.54 and 7.69"},
      {"measurement": "survival", "setting": "[2]", "result": 70, "unit": "%"},
      {"measurement": "death", "setting": "[2]; 58 mg/kg", "result": 6},
      {"measurement": "increase of the ratio of IL-1/IL-1Ra over the base level", "setting": "[3]", "result": "about 5 fold"},
      {"measurement": "I + II", "setting": "[4]; day 0, before the injection", "result": 0.166},
      {"measurement": "IL-1", "setting": "[4]; day 0, before the injection", "result": 2.95, "unit": "pg/mL"},
      {"measurement": "IL-1/IL-IRA (I)", "setting": "[4]; day 0, before the injection", "result": 0.098},
      {"measurement": "IL-IRA", "setting": "[4]; day 0, before the injection", "result": 30, "unit": "pg/mL"},
      {"measurement": "TNF", "setting": "[4]; day 0, before the injection", "result": 1.17, "unit": "pg/mL"},
      {"measurement": "TNF/sTNFrl (II)", "setting": "[4]; day 0, before the injection", "result": 0.068},
      {"measurement": "sTNFrl", "setting": "[4]; day 0, before the injection", "result": 17, "unit": "pg/mL"},
      {"measurement": "I + II", "setting": "[4]; day 1 after the injection", "result": 0.187},
      {"measurement": "IL-1", "setting": "[4]; day 1 after the injection", "result": 20.62, "unit": "pg/mL"},
      {"measurement": "IL-1/IL-IRA (I)", "setting": "[4]; day 1 after the injection", "result": 0.115},
      {"measurement": "IL-IRA", "setting": "[4]; day 1 after the injection", "result": 180, "unit": "pg/mL"},
      {"measurement": "TNF", "setting": "[4]; day 1 after the injection", "result": 4.68, "unit": "pg/mL"},
      {"measurement": "TNF/sTNFrl (II)", "setting": "[4]; day 1 after the injection", "result": 0.072},
      {"measurement": "sTNFrl", "setting": "[4]; day 1 after the injection", "result": 85, "unit": "pg/mL"},
      {"measurement": "I + II", "setting": "[4]; day 2 after the injection", "result": 0.753},
      {"measurement": "IL-1", "setting": "[4]; day 2 after the injection", "result": 17.43, "unit": "pg/mL"},
      {"measurement": "IL-1/IL-IRA (I)", "setting": "[4]; day 2 after the injection", "result": 0.291},
      {"measurement": "IL-IRA", "setting": "[4]; day 2 after the injection", "result": 60, "unit": "pg/mL"},
      {"measurement": "TNF", "setting": "[4]; day 2 after the injection", "result": 17.55, "unit": "pg/mL"},
      {"measurement": "TNF/sTNFrl (II)", "setting": "[4]; day 2 after the injection", "result": 0.462},
      {"measurement": "sTNFrl", "setting": "[4]; day 2 after the injection", "result": 38, "unit": "pg/mL"},
      {"measurement": "I + II", "setting": "[4]; day 3 after the injection", "result": 0.486},
      {"measurement": "IL-1", "setting": "[4]; day 3 after the injection", "result": 17.48, "unit": "pg/mL"},
      {"measurement": "IL-1/IL-IRA (I)", "setting": "[4]; day 3 after the injection", "result": 0.219},
      {"measurement": "IL-IRA", "setting": "[4]; day 3 after the injection", "result": 80, "unit": "pg/mL"},
      {"measurement": "TNF", "setting": "[4]; day 3 after the injection", "result": 9.36, "unit": "pg/mL"},
      {"measurement": "TNF/sTNFrl (II)", "setting": "[4]; day 3 after the injection", "result": 0.267},
      {"measurement": "sTNFrl", "setting": "[4]; day 3 after the injection", "result": 35, "unit": "pg/mL"},
      {"measurement": "I + II", "setting": "[4]; day 4 after the injection", "result": 0.318},
      {"measurement": "IL-1", "setting": "[4]; day 4 after the injection", "result": 17.93, "unit": "pg/mL"},
      {"measurement": "IL-1/IL-IRA (I)", "setting": "[4]; day 4 after the injection", "result": 0.102},
      {"measurement": "IL-IRA", "setting": "[4]; day 4 after the injection", "result": 175, "unit": "pg/mL"},
      {"measurement": "TNF", "setting": "[4]; day 4 after the injection", "result": 8.19, "unit": "pg/mL"},
      {"measurement": "TNF/sTNFrl (II)", "setting": "[4]; day 4 after the injection", "result": 0.216},
      {"measurement": "sTNFrl", "setting": "[4]; day 4 after the injection", "result": 38, "unit": "pg/mL"},
      {"measurement": "Survival/dead", "setting": "[5]", "result": "0/10"},
      {"measurement": "mice dead on 4 day", "setting": "[5]", "result": 4, "unit": "mice - on 4 day"},
      {"measurement": "mice dead on 5 day", "setting": "[5]", "result": 5, "unit": "mice - on 5 day"},
      {"measurement": "mice dead on 6 day", "setting": "[5]", "result": 1, "unit": "mice - on 6 day"},
      {"measurement": "mice dead on day 6", "setting": "[5]", "result": 10, "unit": "mice on day 6"},
      {"measurement": "Survival/dead", "setting": "[5]; 58 mg/kg, monohydrate", "result": "10/0 and 0/10 and 6/4 and 2/4 and 1/3 and 0/1"},
      {"measurement": "I + II", "setting": "[6]; [7]", "result": 0.151},
      {"measurement": "IL-1", "setting": "[6]; [7]", "result": 2.95, "unit": "pg/mL"},
      {"measurement": "IL-1/IL-IRA (I)", "setting": "[6]; [7]", "result": 0.083},
      {"measurement": "IL-IRA", "setting": "[6]; [7]", "result": 30, "unit": "pg/mL"},
      {"measurement": "TNF", "setting": "[6]; [7]", "result": 1.17, "unit": "pg/mL"},
      {"measurement": "TNF/sTNF (II)", "setting": "[6]; [7]", "result": 0.068},
      {"measurement": "sTNFrl", "setting": "[6]; [7]", "result": 17, "unit": "pg/mL"},
      {"measurement": "I + II", "setting": "[6]; [8]", "result": 0.151},
      {"measurement": "IL-1", "setting": "[6]; [8]", "result": 2.95, "unit": "pg/mL"},
      {"measurement": "IL-1/IL-IRA (I)", "setting": "[6]; [8]", "result": 0.083},
      {"measurement": "IL-IRA", "setting": "[6]; [8]", "result": 30, "unit": "pg/mL"},
      {"measurement": "TNF", "setting": "[6]; [8]", "result": 1.17, "unit": "pg/mL"},
      {"measurement": "TNF/sTNF (II)", "setting": "[6]; [8]", "result": 0.068},
      {"measurement": "sTNFrl", "setting": "[6]; [8]", "result": 17, "unit": "pg/mL"},
      {"measurement": "I + II", "setting": "[6]; [9]", "result": 0.407},
      {"measurement": "IL-1", "setting": "[6]; [9]", "result": 10.6, "unit": "pg/mL"},
      {"measurement": "IL-1/IL-IRA (I)", "setting": "[6]; [9]", "result": 0.151},
      {"measurement": "IL-IRA", "setting": "[6]; [9]", "result": 70, "unit": "pg/mL"},
      {"measurement": "TNF", "setting": "[6]; [9]", "result": 8.19, "unit": "pg/mL"},
      {"measurement": "TNF/sTNF (II)", "setting": "[6]; [9]", "result": 0.256},
      {"measurement": "sTNFrl", "setting": "[6]; [9]", "result": 32, "unit": "pg/mL"},
      {"measurement": "I + II", "setting": "[6]; day 1, 58 mg/kg i.m. daily day 3-5 after infection (Group 4)", "result": 0.407}
    ]}
  ]
}
